Measured values: PMC6586287, “Blocking transmembrane219 protein signaling inhibits autophagy and restores normal cell death” (PLoS ONE, 2019)
“Also recorded” adds a separate entry of the source.

Experiments:
[1] = system: LC3 processing in Vero cells; assay: LC3-II punctate staining, LC3-mRFP transfected Vero cells; type: cell-based
Procedure: Immunostaining was performed as described previously (44). Briefly, cells were grown on a coverslip overnight at 5×10^5 cells/ml. 1 μl of Hoechst stain (10 μg/μl) was added to the cells for 10 min at 37°C. For tracking TM219 short cytoplasmic peptide assay, we pretreated the cells with the peptides at concentration of 0, 25, or 250 nM, then added 1 μM IGFBP3 for an hour in DMEM serum free medium. Cells were fixed with 4% paraformaldehyde and permeabilized with 1% triton x100. Cells were then blocked overnight with 10% fetal bovine serum (FBS) in PBS. Finally, cells were stained with streptavidin conjugated to Alex555 (Thermofisher Scientific) for 30 minutes in the same blocking buffer. For immunostaining, cells were stained with the primary antibody according to the manufacturer’s recommendation in the same blocking buffer. The cells were washed 10 times with PBS. Cells were blocked for 1 h with 10% FBS and then stained with secondary antibody conjugated to fluorescence dye (Thermofisher Scientific). As controls, we used secondary antibodies alone. Cells were washed 10 times with PBS and mounted with fluoromount G (Microscopic Science) before examination.
We stained the intact cellular mitochondria using TMRM dye according to the provider recommendations (Thermofisher Scientific). To evaluate the cell membrane permeability in 3D culture, we used membrane impermeable dye propodeum iodide (PI), and the membrane permeable dye (Hoechst dye) to stain the cell nuclei according to the manufacturer recommendations (Thermofisher Scientific). For autophagy efflux assay, we used chloroquine (Sigma-Alderish) (CQ) at final concentration of 200 μM as described previously. Collected images were analyzed with ImageJ software.

MCF7 cells = assay: pHLIP-Cy3 insertion into cell membrane, fluorescence microscopy, MCF7 cells; type: cell-based, human; conditions: pH 7.4 or pH 5.5, 5 min
Procedure: Fig 6 TM219 short cytoplasmic protein tail peptide disrupts the interaction between calmodulin and TM219 protein. […] As the concentration of the free peptide increased, the changes in FP signal decreased. […] B- MCF7 cells treated with pHLIP-cy3 peptide at pH 7.4 or pH 5.5 for 5 minutes. Cells were fixed and examined with fluorescence microscopy. […] Nuclei were stained with Hoechst dye (blue). C-MCF7 cells pretreated with either SCTT-pHLIP or pHLIP peptide alone were treated with 1μM IGFBP3 for 1hour in DMEM serum free medium. Cell lysates were subjected to immunoblot using anti-human phosphor-beclin1 antibody. […] TEXT PRINTED IN THE PICTURE: (A) unlabeled peptide: ki 0.02342 ± 0.001492 DOUBTS OF THE COPYIST ABOUT THIS PICTURE: Panel A, ki: no unit is printed with the value. The substance label 'unlabeled peptide' is taken from the printed x-axis title because the fit box names no substance. / Panel A: 'c 0.1 ± 0' in the fit box was left out as a fit parameter whose meaning is unclear.

MDA-MB231 cells = assay: pHLIP-Cy3 insertion, fluorescence microscopy, MDA-MB231 cells in 2D and 3D culture; type: cell-based, human; conditions: 2D (3 days) and 3D (0.5% low melting agarose, 5 days) culture; 6 h at 37°C in DMEM buffered with PBS
Procedure: A- MDA-MB231 cells were grown in a complete DMEM medium for 3 days or in 0.5% low melting agarose in complete medium for 5 days were treated with phLIP-Cy3 peptide in DMEM buffered with PBS for 6 hour at 37°C. Growth media were replaced with completed DMEM medium buffered with carbonate. Cells were imaged for insertion of the peptide. […] Nuclei of the cells were stained with Hoechst stain (blue) B-Cells pretreated with pHLIP-TM219 peptide or pHLIP peptide alone for 5 days in 0.5% low melting agarose in DMEM complete media supplemented with 1 μM IGFBP3. The peptides were mixed with DMEM buffered with PBS and added to the spheroids grown in low melting agarose. After 6 hours, the media were replaced with completed DMEM media buffered with carbonate pH 7.2. Cells were incubated for additional 9 days at 37°C in a CO2 incubator. […] Living cells were assessed by Hoechst dye stain (Blue).

Vero cells = assay: DIC microscopy of internal vacuoles, Vero cells; type: cell-based; conditions: wild type versus TM219 knockout Vero cells; 1 μM IGFBP3, 1 h, serum free
[2] = system: phospho-Beclin1 in MCF7 cells; assay: Beclin1 phosphorylation / autophagy immunoblot, MCF7 cells; type: cell-based, human; conditions: 1 μM IGFBP3, 1 h, serum free; wild type versus TM219 knockout; anti-phospho-beclin1, anti-LC3
Procedure: For phosphorylation assay of Beclin1 protein, we treated 6x10^6 MCF7 cells grown in DMEM serum free medium with 1 μM IGFBP3. Lysates were prepared in RIPA buffer in presence of 2X protease and phosphatase inhibitors (Thermofisher Scientific). Lysates were clarified by centrifugation at 10,000 rpm for 30 minutes at 4°C. Finally, the blotted membranes were probed with anti-TM219, LC3, calmodulin, phospho-beclin1, or β-actin. To quantify the ratio between LC3-II and LC3-I, we used an image densitometry method using ImageJ software.

[3] = system: TM219-calmodulin complex in THP1 cells; assay: co-immunoprecipitation of TM219 complex, anti-calmodulin immunoblot, THP1 cells; type: cell-based, human; conditions: 1 μM IGFBP3, 1 h, serum free
Procedure: For immunoprecipitation of TM219 complex, we treated 6X10^6 THP1 cells grown in Roswell park memorial institute 1640 medium (PRIM) without serum with 1 μM IGFBP3 for 1 hour. Cells were lysed with immunoprecipitation buffer (1% NP-40, 150 mM NaCl, and 50 mM Tris pH 8.4 in the presence of 2 X protease inhibitors (Roche)). Crosslinking of mouse anti-TM219 antibodies to protein A-Sepharose was performed as previously described. Briefly, 1 mg of the antibody was incubated with 1 ml protein A-Sepharose beads (Thermofisher scientific), with continuous mixing at 4°C for 2 h. The beads were then centrifuged and washed five times with PBS and once with 200 mM sodium borate, pH 9. Equal volumes of 40 mM dimethylsuberimidate (Thermofisher scientific) in 200 mM sodium borate were mixed with the beads, and the suspension was incubated, with continuous mixing, at room temperature for 30 min. The reaction was terminated by addition of equal volumes of 400 mM ethanolamine, and the sample was incubated for an additional 30 min. The beads were packed into a 1-cm-diameter column (Bio-RAD) and washed three times with 2 bed volumes of PBS and once with 4 bed volumes of 100 mM glycine-HCl at pH 2.4 to remove non-cross-linked antibodies. Finally, the cross-linked antibody beads were washed with PBS until the pH reached 7 and stored at 4°C in PBS containing 0.02% sodium azide. […]

[4] = system: TM219 complex (calmodulin, CaMKII) in MCF7 cells; assay: immunopurification of TM219 complex, anti-CaMKII / anti-calmodulin immunoblot, MCF7 cells; type: cell-based, human; conditions: 1 μM IGFBP3, versus untreated and normal mouse antibody beads
[5] = system: cytosolic calcium in MCF7 cells; assay: cytosolic calcium, colorimetric kit, MCF7 cells; type: cell-based, human; conditions: 1 μM IGFBP3, 5 min, serum free
Procedure: We used a colorimetric kit to measure the increase in the cytosolic calcium in MCF7 cells according to the provider recommendations (Abcam). MCF7 cells were grown in completed DMEM medium at density of 5x10^5 cells/ml in 6 well plates. We compared the effects of 1μM IGFBP3 on the wild type, TM219 knockout and untreated MCF7 cells after 5 minutes in serum free medium. As a positive control we used […] ionomycin (Thermofishter Scientific). As a negative control we pretreated MCF7 cells with […] BAPTA for 30 minutes (Thermofisher Scientific). Experiments were run in triplicate.

[6] = fluorescence anisotropy control binding to empty nanodisc
Procedure: Reconstituted TM219 into 13 nm nanodisc and labeling of our purified calmodulin or IGFBP3 (R&D systems) with BODIPY-TRM-X-succinimidyl ester dye were described previously. […] Serial dilution of the TM219 short cytoplasmic peptide (1pM-10mM) was used. Fluorescence anisotropy assays were done in triplicates and data represent an average of three independent experiments. Each sample was run in triplicates and an average of 60 readings was used for calculation. Binding constants (KDs) or inhibition constant (Ki) were determined with Origin 7 (OriginLab) by fitting the data as described previously.

[7] = system: cytosolic calcium in MCF7 cells; conditions: independent on IGF or heparin; ref [55]; cited from earlier work
From the text: After that we compared the effects of IGFBP3 on elevation of intracellular calcium in these cells. […] However, no sign ...

## CCN(CC)CCCC(C)Nc1ccnc2cc(Cl)ccc12 (centres unmarked) [chloroquine, reference compound]
[1]; 200 μM chloroquine plus 1 μM IGFBP3
  LC3-II punctate accumulation with chloroquine: this punctate stain was accumulated in the cytoplasm
[1]; 200 μM chloroquine plus 1 μM IGFBP3, listed as CQ
  LC3-II punctate accumulation with chloroquine: accumulates LCII positive vesicles in the cytoplasm of Vero cells

## AEQNPIYWARYADWLFTTPLLLLDLALLVDADEGTC-s-s-C(cy3) [pHLIP-cy3]
MCF7 cells
  insertion into plasma membrane of MCF7 cells: Staining of the cells with red dye indicates insertion of pHLIP-cy3 into the cell membrane of MCF7 cells
MDA-MB231 cells
  insertion into plasma membrane of MDA-MB231 cells: insertion of pHLIP-cy3 peptide into the plasma membrane of MAD-MB231 in both two dimension and three dimension cell cultures

## Insulin-like growth factor binding protein 3 [IGFBP3]
[1]; Vero cells with LC3-mRFP, 1 μM IGFBP3, 1 h, serum free, mean +/- SEM plotted
  LC3 processing (LC3-II punctate staining): significant increase in processing of LC3; also recorded: significant increase in number of LCII punctate stain
Vero cells
  internal vacuoles: TM219 wild type Vero cells demonstrated larger internal vacuoles after treatment with IGFBP3 compared to TM219 knockout Vero cells; also recorded: wild type Vero cells showed larger internal vacuoles
[2]
  autophagy activation in MCF7 cells: activates autophagy in MCF7 cells
[3]
  TM219-calmodulin complex formation (co-immunoprecipitation): immunoprecipitation with anti-TM219 consistently brought down calmodulin
[4]
  association of calmodulin and CaMKII with TM219 complex: TM219 protein recruits calmodulin and calmodulin dependent kinase II after treatment with IGFBP3; also recorded: Purified proteins from cells treated with IGFBP3 reacted specifically with anti-CaMKII antibody
[5]
  cytosolic calcium, TM219 knockout versus wild type: no significant difference
[5]; % of ionomycin reading, BAPTA reading subtracted
  cytosolic calcium: triggered elevation of the cytosolic calcium in MCF7 independent of TM219 receptor; also recorded: relatively higher signal of calcium relative to untreated MCF7 cells
[6]; empty nanodisc 0-2000 nM, fluorescence anisotropy
  binding of labelled IGFBP3 to empty nanodisc: No specific binding was detected
[7]
  intracellular calcium release in MCF7 cells (previous studies): activates intracellular rapid release of intracellular calcium in MCF7 cells

## calmodulin
[6]; empty nanodisc 0-100 μM, 1 mM calcium chloride, 1 μM IGFBP3
  binding of calmodulin to empty nanodisc: No specific binding was detected; also recorded: No specific binding was observed
